According to patent US9944602B2, “Piperidinone herbicides” (E. I. DU PONT DE NEMOURS AND COMPANY, priority 2014, dated 2018):

Key:
Format in all cases: in vivo
[1] = system: velvetleaf (Abutilon theophrasti); assay: Test A preemergence velvetleaf; conditions: 0 to 100 scale, 0 no effect, 100 complete control
Description: (§1) Seeds of plant species selected from barnyardgrass (Echinochloa crus-galli), kochia (Kochia scoparia), ragweed (common ragweed, Ambrosia elatior), ryegrass, Italian (Italian ryegrass, Lolium multiflorum), crabgrass, large (large crabgrass, Digitaria sanguinalis), foxtail, giant (giant foxtail, Setaria faberii), morningglory (Ipomoea spp.), pigweed (Amaranthus retroflexus), velvetleaf (Abutilon theophrasti), wheat (Triticum aestivum), and corn (Zea mays) were planted into a blend of loam soil and sand and treated preemergence with a directed soil spray using test chemicals formulated in a non-phytotoxic solvent mixture which included a surfactant.
(§2) At the same time, plants selected from these crop and weed species and also blackgrass (Alopecurus myosuroides), and galium (catchweed bedstraw, Galium aparine) were planted in pots containing the same blend of loam soil and sand and treated with postemergence applications of test chemicals formulated in the same manner. Plants ranged in height from 2 to 10 cm and were in the one- to two-leaf stage for the postemergence treatment. Treated plants and untreated controls were maintained in a greenhouse for approximately 10 d, after which time all treated plants were compared to untreated controls and visually evaluated for injury. Plant response ratings, summarized in Table A, are based on a 0 to 100 scale where 0 is no effect and 100 is complete control. A dash (-) response means no test result.

[2] = system: morningglory (Ipomoea spp.); assay: Test A preemergence morningglory; conditions: 0 to 100 scale, 0 no effect, 100 complete control
Description: as §1, §2

[3] = system: crabgrass, large (large crabgrass, Digitaria sanguinalis); assay: Test A preemergence crabgrass, large; conditions: 0 to 100 scale; for Crabgrass, Large plant response rating: 125 g ai/ha, 0 no effect, 100 complete control; for Plant response rating, Crabgrass, Large: 500 g ai/ha, 0 is no effect, 100 is complete control
Description: as §1, §2

[4] = system: pigweed (Amaranthus retroflexus); assay: Test A preemergence pigweed; conditions: 0 to 100 scale, 0 no effect, 100 complete control
How it was run: (§3)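 Both application timings used the same loam-and-sand medium and the same solvent–surfactant formulation. Postemergence plants were 2–10 cm at the one- to two-leaf stage. After roughly 10 d of greenhouse growth, injury was judged visually against untreated plants, where 0 is no effect and 100 complete control.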

corn (Zea mays) [5] = assay: Test A preemergence corn; conditions: 0 to 100 scale; for Corn plant response rating: 125 g ai/ha, 0 no effect, 100 complete control; for Plant response rating, Corn: 500 g ai/ha, 0 is no effect, 100 is complete control
Description: as §1, §2

[6] = system: barnyardgrass (Echinochloa crus-galli); assay: Test A preemergence barnyardgrass; conditions: 0 to 100 scale; for Barnyardgrass plant response rating: 125 g ai/ha, 0 no effect, 100 complete control; for Plant response rating, Barnyardgrass: 500 g ai/ha, 0 is no effect, 100 is complete control
How it was run: as §3

[7] = system: barnyardgrass (Echinochloa crus-galli); assay: Test A postemergence barnyardgrass; conditions: 0 to 100 scale, 0 is no effect, 100 is complete control
How it was run: as §3

rice (Oryza sativa) = assay: Test B flooded paddy test rice; conditions: Table B, Flood, 250 g ai/ha, scale 0 to 100
How it was run: (§4)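 Water-applied paddy treatment: compound dosed into 3 cm flood on 2-leaf plants, read visually versus controls after 13 to 15 d.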

[8] = system: foxtail, giant (giant foxtail, Setaria faberii); assay: Test A postemergence foxtail, giant; conditions: 0 to 100 scale, 0 is no effect, 100 is complete control
How it was run: as §3

[9] = system: pigweed (Amaranthus retroflexus); assay: Test A postemergence pigweed; conditions: 0 to 100 scale, 0 is no effect, 100 is complete control
How it was run: as §3

[10] = system: sedge, umbrella (small-flower umbrella sedge, Cyperus difformis); assay: Test B flooded paddy test sedge, umbrella; conditions: Table B, Flood, 250 g ai/ha, scale 0 to 100
How it was run: as §4

[11] = system: wheat (Triticum aestivum); assay: Test A preemergence wheat; conditions: 0 to 100 scale, 0 no effect, 100 complete control
Description: as §1, §2

[12] = system: wheat (Triticum aestivum); assay: Test A postemergence wheat; conditions: 0 to 100 scale, 0 is no effect, 100 is complete control
How it was run: as §3

[13] = system: ducksalad (Heteranthera limosa); assay: Test B flooded paddy test ducksalad; conditions: Table B, Flood, 250 g ai/ha, scale 0 to 100
How it was run: as §4

corn (Zea mays) [14] = assay: Test A postemergence corn; conditions: 0 to 100 scale, 0 is no effect, 100 is complete control
How it was run: as §3

[15] = system: foxtail, giant (giant foxtail, Setaria faberii); assay: Test A preemergence foxtail, giant; conditions: 0 to 100 scale, 0 no effect, 100 complete control
How it was run: as §3

[16] = system: morningglory (Ipomoea spp.); assay: Test A postemergence morningglory; conditions: 0 to 100 scale, 0 is no effect, 100 is complete control
Description: as §1, §2

[17] = system: velvetleaf (Abutilon theophrasti); assay: Test A postemergence velvetleaf; conditions: 0 to 100 scale, 0 is no effect, 100 is complete control
Description: as §1, §2

[18] = system: barnyardgrass (Echinochloa crus-galli); assay: Test B flooded paddy test barnyardgrass; conditions: Table B, Flood, 250 g ai/ha, scale 0 to 100
How it was run: as §4

[19] = system: crabgrass, large (large crabgrass, Digitaria sanguinalis); assay: Test A postemergence crabgrass, large; conditions: 0 to 100 scale, 0 is no effect, 100 is complete control
Description: as §1, §2

| SMILES | Velvetleaf plant response rating ([1]; 125 g ai/ha) | Velvetleaf plant response rating ([1]; 500 g ai/ha) | Morningglory plant response rating ([2]; 125 g ai/ha) | Morningglory plant response rating ([2]; 500 g ai/ha) | Crabgrass, Large plant response rating [3] | Plant response rating, Crabgrass, Large [3] | Pigweed plant response rating ([4]; 125 g ai/ha) | Pigweed plant response rating ([4]; 500 g ai/ha) | Corn plant response rating (corn (Zea mays) [5]) | Plant response rating, Corn (corn (Zea mays) [5]) | Barnyardgrass plant response rating [6] | Plant response rating, Barnyardgrass [6] | Plant response rating, Barnyardgrass ([7]; 125 g ai/ha) | Plant response rating, Barnyardgrass ([7]; 500 g ai/ha) | Plant response rating (rice (Oryza sativa)) | Plant response rating, Foxtail, Giant ([8]; 125 g ai/ha) | Plant response rating, Foxtail, Giant ([8]; 500 g ai/ha) | Plant response rating, Pigweed ([9]; 125 g ai/ha) | Plant response rating, Pigweed ([9]; 500 g ai/ha) | Plant response rating [10] | further results |
| --- | --- | --- | --- | --- | --- | --- | --- | --- | --- | --- | --- | --- | --- | --- | --- | --- | --- | --- | --- | --- | --- |
| O=C1NCCC(c2ccccc2)C1C(=O)Nc1ccccc1F (racemic) [Compound 3] | 0 | 0 | 0 | 0 | 0 | 30 | 0 | 0 | 0 | 0 | 0 | 0 | 0 | 0 | 0 | 0 | 0 | 0 | 0 | 0 | Wheat plant response rating ([11]; 125 g ai/ha): 0; Wheat plant response rating ([11]; 500 g ai/ha): 20; Plant response rating, Wheat ([12]; 125 g ai/ha): 0; Plant response rating, Wheat ([12]; 500 g ai/ha): 0; Plant response rating [13]: 0; Plant response rating, Corn (corn (Zea mays) [14]; 125 g ai/ha): 0; Plant response rating, Corn (corn (Zea mays) [14]; 500 g ai/ha): 0; Foxtail, Giant plant response rating ([15]; 125 g ai/ha): 0; Foxtail, Giant plant response rating ([15]; 500 g ai/ha): 0; Plant response rating, Morningglory ([16]; 125 g ai/ha): 0; Plant response rating, Morningglory ([16]; 500 g ai/ha): 0; Plant response rating, Velvetleaf ([17]; 125 g ai/ha): 0; Plant response rating, Velvetleaf ([17]; 500 g ai/ha): 0; Plant response rating [18]: 0; Plant response rating, Crabgrass, Large ([19]; 125 g ai/ha): 0; Plant response rating, Crabgrass, Large ([19]; 500 g ai/ha): 0 |
| O=C1NCCC(c2ccc(F)cc2)C1C(=O)Nc1ccccc1C(F)(F)F (racemic) [Compound 4] | 0 | 0 | 0 | 0 | 90 | 90 | 0 | 0 | 0 | 0 | 0 | 50 | 0 | 20 | 0 | 0 | 0 | 0 | 0 | 0 | Wheat plant response rating ([11]; 125 g ai/ha): 0; Wheat plant response rating ([11]; 500 g ai/ha): 0; Plant response rating, Wheat ([12]; 125 g ai/ha): 0; Plant response rating, Wheat ([12]; 500 g ai/ha): 0; Plant response rating [13]: 0; Plant response rating, Corn (corn (Zea mays) [14]; 125 g ai/ha): 0; Plant response rating, Corn (corn (Zea mays) [14]; 500 g ai/ha): 0; Foxtail, Giant plant response rating ([15]; 125 g ai/ha): 10; Foxtail, Giant plant response rating ([15]; 500 g ai/ha): 70; Plant response rating, Morningglory ([16]; 125 g ai/ha): 0; Plant response rating, Morningglory ([16]; 500 g ai/ha): 0; Plant response rating, Velvetleaf ([17]; 125 g ai/ha): 0; Plant response rating, Velvetleaf ([17]; 500 g ai/ha): 0; Plant response rating [18]: 0; Plant response rating, Crabgrass, Large ([19]; 125 g ai/ha): 40; Plant response rating, Crabgrass, Large ([19]; 500 g ai/ha): 70 |
| O=C1NCCC(c2ccc(F)cc2)C1C(=O)Nc1ccccc1F (racemic) [Compound 5] | 0 | 0 | 0 | 0 | 60 | 90 | 0 | 0 | 0 | 0 | 0 | 30 | 0 | 30 | 0 | 0 | 0 | 0 | 0 | 0 | Wheat plant response rating ([11]; 125 g ai/ha): 0; Wheat plant response rating ([11]; 500 g ai/ha): 0; Plant response rating, Wheat ([12]; 125 g ai/ha): 0; Plant response rating, Wheat ([12]; 500 g ai/ha): 0; Plant response rating [13]: 0; Plant response rating, Corn (corn (Zea mays) [14]; 125 g ai/ha): 0; Plant response rating, Corn (corn (Zea mays) [14]; 500 g ai/ha): 0; Foxtail, Giant plant response rating ([15]; 125 g ai/ha): 30; Foxtail, Giant plant response rating ([15]; 500 g ai/ha): 50; Plant response rating, Morningglory ([16]; 125 g ai/ha): 0; Plant response rating, Morningglory ([16]; 500 g ai/ha): 0; Plant response rating, Velvetleaf ([17]; 125 g ai/ha): 0; Plant response rating, Velvetleaf ([17]; 500 g ai/ha): 0; Plant response rating [18]: 0; Plant response rating, Crabgrass, Large ([19]; 125 g ai/ha): 0; Plant response rating, Crabgrass, Large ([19]; 500 g ai/ha): 0 |
| O=C1NCCC(c2ccc(F)c(F)c2)C1C(=O)Nc1ccccc1C(F)(F)F (racemic) [Compound 6] | 0 | 0 | 0 | 0 | 90 | 90 | 0 | 0 | 0 | 0 | 60 | 80 | 0 | 50 | 0 | 30 | 70 | 0 | 30 | 0 | Wheat plant response rating ([11]; 125 g ai/ha): 0; Wheat plant response rating ([11]; 500 g ai/ha): 0; Plant response rating, Wheat ([12]; 125 g ai/ha): 0; Plant response rating, Wheat ([12]; 500 g ai/ha): 0; Plant response rating [13]: 60; Plant response rating, Corn (corn (Zea mays) [14]; 125 g ai/ha): 0; Plant response rating, Corn (corn (Zea mays) [14]; 500 g ai/ha): 0; Foxtail, Giant plant response rating ([15]; 125 g ai/ha): 60; Foxtail, Giant plant response rating ([15]; 500 g ai/ha): 90; Plant response rating, Morningglory ([16]; 125 g ai/ha): 0; Plant response rating, Morningglory ([16]; 500 g ai/ha): 0; Plant response rating, Velvetleaf ([17]; 125 g ai/ha): 0; Plant response rating, Velvetleaf ([17]; 500 g ai/ha): 0; Plant response rating [18]: 0; Plant response rating, Crabgrass, Large ([19]; 125 g ai/ha): 50; Plant response rating, Crabgrass, Large ([19]; 500 g ai/ha): 80 |
